Measured values from patent publication US11180470B2, “Herbicidal pyrimidine compounds” (BASF SE, priority 2016, dated 2021).

Key:
[1] = system: SETVI; assay: greenhouse experiment, post-emergence treatment; assay type: in vivo, Setaria viridis; conditions: post-emergence method, application rate 2000 g/ha, scale from 0 to 100
Text: (§1) The culture containers used were plastic flowerpots containing loamy sand with approximately 3.0% of humus as the substrate. The seeds of the test plants were sown separately for each species.
(§2) For the post-emergence treatment, the test plants were first grown to a height of 3 to 15 cm, depending on the plant habit, and only then treated with the active ingredients which had been suspended or emulsified in water. For this purpose, the test plants were either sown directly and grown in the same containers, or they were first grown separately as seedlings and transplanted into the test containers a few days prior to treatment.
(§3) Depending on the species, the plants were kept at 10-25° C. or 20-35° C., respectively.
(§4) The test period extended over 2 to 4 weeks. During this time, the plants were tended, and their response to the individual treatments was evaluated.
(§5) Evaluation was carried out using a scale from 0 to 100. 100 means no emergence of the plants, or complete destruction of at least the aerial moieties, and 0 means no damage, or normal course of growth. A good herbicidal activity is given at values of at least 70 and a very good herbicidal activity is given at values of at least 85.
(§6) The plants used in the greenhouse experiments were of the following species: […]

[2] = system: ECHCG; assay: greenhouse experiment, pre-emergence treatment; assay type: in vivo, Echinocloa crus-galli; conditions: pre-emergence method, application rate 2000 g/ha, scale from 0 to 100
Text: (§7) The seeds of the test plants were sown separately for each species. For the pre-emergence treatment, the active ingredients, which had been suspended or emulsified in water, were applied directly after sowing by means of finely distributing nozzles. The containers were irrigated gently to promote germination and growth and subsequently covered with transparent plastic hoods until the plants had rooted. This cover caused uniform germination of the test plants, unless this had been impaired by the active ingredients. Depending on the species, the plants were kept at 10-25° C. or 20-35° C., respectively. The test period extended over 2 to 4 weeks. During this time, the plants were tended, and their response to the individual treatments was evaluated. Evaluation was carried out using a scale from 0 to 100. 100 means no emergence of the plants, or complete destruction of at least the aerial moieties, and 0 means no damage, or normal course of growth. A good herbicidal activity is given at values of at least 70 and a very good herbicidal activity is given at values of at least 85. The plants used in the greenhouse experiments were of the following species: [table]

[3] = system: ALOMY; assay: greenhouse experiment, post-emergence treatment; assay type: in vivo, Alopecurus myosuroides; conditions: post-emergence method, application rate 2000 g/ha, scale from 0 to 100
Text: as §1, §2, §3, §4, §5, §6

[4] = system: AMARE; assay: greenhouse experiment, post-emergence treatment; assay type: in vivo, Amaranthus retroflexus; conditions: post-emergence method, scale from 0 to 100
Text: as §1, §2, §3, §4, §5, §6

[5] = system: AVEFA; assay: greenhouse experiment, post-emergence treatment; assay type: in vivo, Avena fatua; conditions: post-emergence method, application rate 2000 g/ha, scale from 0 to 100
Text: as §1, §2, §3, §4, §5, §6

[6] = system: APESV; assay: greenhouse experiment, pre-emergence treatment; assay type: in vivo, Apera spica-venti; conditions: pre-emergence method, application rate 2000 g/ha, scale from 0 to 100
Text: as §7

[7] = system: ECHCG; assay: greenhouse experiment, post-emergence treatment; assay type: in vivo, Echinocloa crus-galli; conditions: post-emergence method, scale from 0 to 100
Protocol: The seeds of the test plants were sown separately for each species. […] For this purpose, the test plants were either sown directly and grown in the same containers, or they were first grown separately as seedlings and transplanted into the test containers a few days prior to treatment. Depending on the species, the plants were kept at 10-25° C. or 20-35° C., respectively. The test period extended over 2 to 4 weeks. During this time, the plants were tended, and their response to the individual treatments was evaluated. Evaluation was carried out using a scale from 0 to 100. 100 means no emergence of the plants, or complete destruction of at least the aerial moieties, and 0 means no damage, or normal course of growth. A good herbicidal activity is given at values of at least 70 and a very good herbicidal activity is given at values of at least 85. The plants used in the greenhouse experiments were of the following species: [table]

## CCc1ncc(-c2ncccc2Br)c(C(=O)O)n1 [Example 49]
[1]
  herbicidal activity against SETVI: very good (a very good herbicidal activity is given at values of at least 85)
[2]
  herbicidal activity against ECHCG: very good (a very good herbicidal activity is given at values of at least 85)

## O=C(O)c1nc(C2CC2)ncc1-c1ccncc1Br [Example 38]
[3]
  herbicidal activity against ALOMY: very good (a very good herbicidal activity is given at values of at least 85)
[4]; application rate 2000 g/ha
  herbicidal activity against AMARE: very good (a very good herbicidal activity is given at values of at least 85)
[5]
  herbicidal activity against AVEFA: very good (a very good herbicidal activity is given at values of at least 85)
[6]
  herbicidal activity against APESV: very good (a very good herbicidal activity is given at values of at least 85)
[2]
  herbicidal activity against ECHCG: very good (a very good herbicidal activity is given at values of at least 85)

## COC(=O)c1nc(C2CC2)ncc1-c1occc1C(F)F [Example 17]
[4]; application rate 2000 g/ha
  herbicidal activity against AMARE: very good (a very good herbicidal activity is given at values of at least 85)

## COC(=O)c1nc(C2CC2)ncc1-c1ncccc1Br [Example 28]
[3]
  herbicidal activity against ALOMY: very good (a very good herbicidal activity is given at values of at least 85)
[1]
  herbicidal activity against SETVI: good (A good herbicidal activity is given at values of at least 70)
[6]
  herbicidal activity against APESV: very good (a very good herbicidal activity is given at values of at least 85)
[2]
  herbicidal activity against ECHCG: very good (a very good herbicidal activity is given at values of at least 85)

## CCc1ncc(-c2ncc(F)cc2Br)c(C(=O)O)n1 [Example 54]
[4]; application rate 1000 g/ha
  herbicidal activity against AMARE: very good (a very good herbicidal activity is given at values of at least 85)
[7]; application rate 1000 g/ha
  herbicidal activity against ECHCG: very good (a very good herbicidal activity is given at values of at least 85)

## COC(=O)c1nc(C2CC2)ncc1-c1cnccc1Br [Example 34]
[3]
  herbicidal activity against ALOMY: very good (a very good herbicidal activity is given at values of at least 85)
[7]; application rate 2000 g/ha
  herbicidal activity against ECHCG: very good (a very good herbicidal activity is given at values of at least 85)
[1]
  herbicidal activity against SETVI: very good (a very good herbicidal activity is given at values of at least 85)

## O=C(O)c1nc(C2CC2)ncc1-c1ncc(F)cc1Br [Example 24]
[4]; application rate 2000 g/ha
  herbicidal activity against AMARE: very good (a very good herbicidal activity is given at values of at least 85)
[5]
  herbicidal activity against AVEFA: very good (a very good herbicidal activity is given at values of at least 85)
[7]; application rate 2000 g/ha
  herbicidal activity against ECHCG: very good (a very good herbicidal activity is given at values of at least 85)
[6]
  herbicidal activity against APESV: very good (a very good herbicidal activity is given at values of at least 85)
[2]
  herbicidal activity against ECHCG: very good (a very good herbicidal activity is given at values of at least 85)

## COC(=O)c1nc(OC)ncc1-c1ncccc1F [Example 46]
[4]; application rate 2000 g/ha
  herbicidal activity against AMARE: good (A good herbicidal activity is given at values of at least 70)

## Cc1ccsc1-c1cnc(C2CC2)nc1C(=O)O [Example 3]
[4]; application rate 2000 g/ha
  herbicidal activity against AMARE: very good (a very good herbicidal activity is given at values of at least 85)
[7]; application rate 2000 g/ha
  herbicidal activity against ECHCG: very good (a very good herbicidal activity is given at values of at least 85)
[6]
  herbicidal activity against APESV: very good (a very good herbicidal activity is given at values of at least 85)
[2]
  herbicidal activity against ECHCG: very good (a very good herbicidal activity is given at values of at least 85)

## O=Cc1ccoc1-c1cnc(C2CC2)nc1C(=O)O [Example 40]
[4]; application rate 2000 g/ha
  herbicidal activity against AMARE: very good (a very good herbicidal activity is given at values of at least 85)

## COC(=O)c1nc(C2CC2)ncc1-c1nc(C(F)(F)F)ccc1F [Example 61]
[3]
  herbicidal activity against ALOMY: very good (a very good herbicidal activity is given at values of at least 85)
[5]
  herbicidal activity against AVEFA: very good (a very good herbicidal activity is given at values of at least 85)
[1]
  herbicidal activity against SETVI: very good (a very good herbicidal activity is given at values of at least 85)
[6]
  herbicidal activity against APESV: good (A good herbicidal activity is given at values of at least 70)
[2]
  herbicidal activity against ECHCG: very good (a very good herbicidal activity is given at values of at least 85)

## COC(=O)c1nc(OC)ncc1-c1ncc(F)cc1F [Example 53]
[1]
  herbicidal activity against SETVI: good (A good herbicidal activity is given at values of at least 70)

## O=C(O)c1nc(C2CC2)ncc1-c1ncccc1I [Example 39]
[3]
  herbicidal activity against ALOMY: good (A good herbicidal activity is given at values of at least 70)
[5]
  herbicidal activity against AVEFA: very good (a very good herbicidal activity is given at values of at least 85)
[7]; application rate 2000 g/ha
  herbicidal activity against ECHCG: good (A good herbicidal activity is given at values of at least 70)
[6]
  herbicidal activity against APESV: very good (a very good herbicidal activity is given at values of at least 85)
[2]
  herbicidal activity against ECHCG: very good (a very good herbicidal activity is given at values of at least 85)

## CCc1ncc(-c2cccnc2Br)c(C(=O)O)n1 [Example 48]
[1]
  herbicidal activity against SETVI: very good (a very good herbicidal activity is given at values of at least 85)

## O=C(O)c1nc(C2CC2)ncc1-c1ncccc1Br [Example 29]
[3]
  herbicidal activity against ALOMY: very good (a very good herbicidal activity is given at values of at least 85)
[5]
  herbicidal activity against AVEFA: very good (a very good herbicidal activity is given at values of at least 85)
[7]; application rate 2000 g/ha
  herbicidal activity against ECHCG: very good (a very good herbicidal activity is given at values of at least 85)
[6]
  herbicidal activity against APESV: good (A good herbicidal activity is given at values of at least 70)
[2]
  herbicidal activity against ECHCG: good (A good herbicidal activity is given at values of at least 70)

## O=C(O)c1nc(C2CC2)ncc1-c1ncc(F)cc1Cl [Example 42]
[3]
  herbicidal activity against ALOMY: very good (a very good herbicidal activity is given at values of at least 85)
[5]
  herbicidal activity against AVEFA: very good (a very good herbicidal activity is given at values of at least 85)
[7]; application rate 2000 g/ha
  herbicidal activity against ECHCG: very good (a very good herbicidal activity is given at values of at least 85)
[6]
  herbicidal activity against APESV: very good (a very good herbicidal activity is given at values of at least 85)
[2]
  herbicidal activity against ECHCG: very good (a very good herbicidal activity is given at values of at least 85)

## COC(=O)c1nc(C2CC2)ncc1-c1cnccc1Br [Example 32]
[4]; application rate 2000 g/ha
  herbicidal activity against AMARE: very good (a very good herbicidal activity is given at values of at least 85)
[6]
  herbicidal activity against APESV: very good (a very good herbicidal activity is given at values of at least 85)
[2]
  herbicidal activity against ECHCG: very good (a very good herbicidal activity is given at values of at least 85)

## COC(=O)c1nc(C2CC2)ncc1-c1cccnc1Br [Example 18]
[4]; application rate 2000 g/ha
  herbicidal activity against AMARE: very good (a very good herbicidal activity is given at values of at least 85)
[5]
  herbicidal activity against AVEFA: very good (a very good herbicidal activity is given at values of at least 85)
[7]; application rate 2000 g/ha
  herbicidal activity against ECHCG: very good (a very good herbicidal activity is given at values of at least 85)
[6]
  herbicidal activity against APESV: very good (a very good herbicidal activity is given at values of at least 85)
[2]
  herbicidal activity against ECHCG: very good (a very good herbicidal activity is given at values of at least 85)

## O=C(O)c1nc(C2CC2)ncc1-c1cc(C(F)(F)F)ncc1Cl [Example 64]
[3]
  herbicidal activity against ALOMY: very good (a very good herbicidal activity is given at values of at least 85)
[5]
  herbicidal activity against AVEFA: very good (a very good herbicidal activity is given at values of at least 85)
[7]; application rate 2000 g/ha
  herbicidal activity against ECHCG: good (A good herbicidal activity is given at values of at least 70)
[6]
  herbicidal activity against APESV: very good (a very good herbicidal activity is given at values of at least 85)
[2]
  herbicidal activity against ECHCG: very good (a very good herbicidal activity is given at values of at least 85)
